Results published in paper PMC10382584, “Macrocyclization of linear molecules by deep learning to facilitate macrocyclic drug candidates discovery” (Nature Communications, 2023).
Values joined by “and” are separate entries in the source; they are usually repeats but may differ in a detail not shown here. Equal values may be shown once. Read-outs that look alike come from different tables or passages of the source.

Tests used:
[1] = tested on: DSS-induced colitis mice; test: In vivo efficacy study, DSS-induced colitis model; set-up: species or system male BALB/c mice; settings: for DAI score (Fig. 6b) / Body weight (Fig. 6a): individual mice
Method: Model mice were divided into four groups and eight mice were included in each group on day 8. […] Meanwhile, solvent was given intragastrically to the control group and model group. On day 15, the mice were sacrificed, and the length and weight of each colon were measured.
Body weight, the stool consistency, and the presence of blood in feces were recorded daily in the morning. […] The maximum score was 9, which was the sum of the scores. About 1-cm colon tissue, which is 0.5 cm away from the anal margin, was collected, and the ileocecal area was used for histopathological examination. After H&E staining, the tissues were scored under single-blind conditions to evaluate the levels of inflammation and tissue damage in the colons following the criteria proposed by ref. [62]. Statistical analyses were performed using SPSS v24.0.

[2] = target: T1, JAK2 (Homo sapiens, UniProt O60674); test: JAK2 enzyme assay (Z'-LYTE kinase assay kit); type: biochemical
T1 construct: 0.05–0.42 ng JAK2, 2 μM peptide substrate (Tyr06)
Method: JAK kinase activity assays were performed using Z’-LYTETM kinase assay kit (Life Technologies, pv4122). […] The mixture was added into the 384-well microplate, shaken gently, and then incubated at room temperature for 1 h. Subsequently, 5 μL development solution was added to the well for incubating another 1 h. Finally, 5 μL stop reagent was added to stop the reaction. […] IC50 values were calculated using GraphPad Prism v8.0.3, and three parallel experiments were performed.

[3] = In vivo PK study in mice;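 on all read-outs here: mice dosed intravenously or orally, three animals per time point, plasma drug levels quantified by LC-MS/MS, PK parameters derived by noncompartmental analysis in Phoenix WinNonLin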; settings: for concentration at time point (concentration-time data, Supplementary Fig. 8): iv 5 mg/kg, individual mice 1-3, 5 mg/kg
Method: The mice were separately administered to a group of three mice per time point for intravenous (5 mg/kg) or oral administration (5 mg/kg). […] Then the samples were separated by centrifugation and analyzed by LC-MS/MS (XEVO TQ-S) to determine the plasma drug concentrations. The PK parameters were calculated using the noncompartment model with Phoenix WinNonLin v8.0. The animal experimental procedures were approved by the Medicine Research Ethics Committee of Hangzhou Leading Pharmatech Co., Ltd.

[4] = 3.5% DSS colitis mice, compound 3 5 mg/kg, Fedratinib 10 mg/kg, intragastric, day 8 to day 14

T1 sequence (O60674 whole entry): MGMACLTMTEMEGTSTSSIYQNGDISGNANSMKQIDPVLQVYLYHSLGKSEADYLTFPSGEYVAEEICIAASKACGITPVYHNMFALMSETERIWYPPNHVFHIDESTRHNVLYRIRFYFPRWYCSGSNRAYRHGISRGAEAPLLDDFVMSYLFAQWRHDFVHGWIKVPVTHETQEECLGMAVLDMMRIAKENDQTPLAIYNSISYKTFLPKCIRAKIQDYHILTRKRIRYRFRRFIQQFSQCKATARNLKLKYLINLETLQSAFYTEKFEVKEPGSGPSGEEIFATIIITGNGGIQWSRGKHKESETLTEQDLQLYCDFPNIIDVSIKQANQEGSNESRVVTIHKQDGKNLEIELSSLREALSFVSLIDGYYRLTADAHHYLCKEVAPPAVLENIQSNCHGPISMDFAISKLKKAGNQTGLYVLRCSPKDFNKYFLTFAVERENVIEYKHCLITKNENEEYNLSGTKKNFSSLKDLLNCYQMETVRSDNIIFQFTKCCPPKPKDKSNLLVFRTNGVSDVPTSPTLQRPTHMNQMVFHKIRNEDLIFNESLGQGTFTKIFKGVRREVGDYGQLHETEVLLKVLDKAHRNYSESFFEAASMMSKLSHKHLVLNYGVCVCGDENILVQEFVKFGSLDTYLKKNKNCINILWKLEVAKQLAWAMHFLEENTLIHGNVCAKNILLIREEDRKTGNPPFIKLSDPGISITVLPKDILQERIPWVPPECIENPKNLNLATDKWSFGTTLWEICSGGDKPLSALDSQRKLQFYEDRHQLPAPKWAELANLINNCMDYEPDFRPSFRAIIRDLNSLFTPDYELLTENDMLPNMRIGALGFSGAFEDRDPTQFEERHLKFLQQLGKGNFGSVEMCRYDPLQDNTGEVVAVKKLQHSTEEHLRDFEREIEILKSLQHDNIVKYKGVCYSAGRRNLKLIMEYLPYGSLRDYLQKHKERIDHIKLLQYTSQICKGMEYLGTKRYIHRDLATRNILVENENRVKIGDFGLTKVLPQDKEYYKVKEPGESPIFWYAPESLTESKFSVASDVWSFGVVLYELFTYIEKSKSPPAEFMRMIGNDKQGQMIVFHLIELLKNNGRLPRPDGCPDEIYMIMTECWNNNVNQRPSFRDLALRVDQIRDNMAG

Cc1cnc2nc1Nc1cccc(c1)COCC=CCOCc1cc(ccc1OCCN1CCCC1)N2 [Compound 3]
histological scores (H&E, Ameho criteria) ([1]; 3.5% DSS colitis mice, compound 3 5 mg/kg, Fedratinib 10 mg/kg): lower
body weight change [1, 4]: alleviate the decrease of body weight
disease activity index (DAI) scores [1, 4]: significantly decreased
ratio of colon weight to length ([1]; 3.5% DSS colitis mice, compound 3 5 mg/kg, Fedratinib 10 mg/kg, compared to the model group): decreased
DAI score (Fig. 6b) ([1]; Compound 3 5 mg/kg, day 0): 0
Body weight (Fig. 6a) ([1]; Compound 3 5 mg/kg, day 0, 5 mg/kg): 21.4 and 20.3 and 22.6 and 21.9 (2×) and 23.4 and 23.9 and 21.5
DAI score (Fig. 6b) ([1]; Compound 3 5 mg/kg, day 1, 5 mg/kg): 0 (7×) and 1
Body weight (Fig. 6a) ([1]; Compound 3 5 mg/kg, day 1, 5 mg/kg, in g (unit assumed)): 22.2 and 21 and 23.1 and 22.4 and 23.5 and 21.4 and 24.6 and 22.7
DAI score (Fig. 6b) ([1]; Compound 3 5 mg/kg, day 2, 5 mg/kg): 2 and 0 (5×) and 1 (2×)
Body weight (Fig. 6a) ([1]; Compound 3 5 mg/kg, day 2, 5 mg/kg, in g (unit assumed)): 21.8 and 22.8 and 22.4
DAI score (Fig. 6b) ([1]; Compound 3 5 mg/kg, day 3, 5 mg/kg): 0 (5×) and 2 (3×)
DAI score (Fig. 6b) ([1]; Compound 3 5 mg/kg, day 4, 5 mg/kg): 2 (4×) and 0 and 1 (2×) and 3
Body weight (Fig. 6a) ([1]; Compound 3 5 mg/kg, day 4, 5 mg/kg, in g (unit assumed)): 23.2 and 19.6 and 22.9 and 22.3 and 22.4 and 22 and 21.1 and 22.5
DAI score (Fig. 6b) ([1]; Compound 3 5 mg/kg, day 5, 5 mg/kg): 3 (2×) and 5 and 1 (3×) and 6 and 2
Body weight (Fig. 6a) ([1]; Compound 3 5 mg/kg, day 5, 5 mg/kg, in g (unit assumed)): 23 and 19.1 and 22 and 19.4 and 20.5 and 20.9 and 20.6 and 21.4
DAI score (Fig. 6b) ([1]; Compound 3 5 mg/kg, day 6, 5 mg/kg): 4 (2×) and 5 and 1 (2×) and 2 and 7 and 6
Body weight (Fig. 6a) ([1]; Compound 3 5 mg/kg, day 6, 5 mg/kg, in g (unit assumed)): 22.2 and 18.3 and 21.8 and 20.1 and 18.5 and 18.4 and 20.2 and 21.3
DAI score (Fig. 6b) ([1]; Compound 3 5 mg/kg, day 7, 5 mg/kg): 7 (3×) and 2 (2×) and 6 and 3 and 4
Body weight (Fig. 6a) ([1]; Compound 3 5 mg/kg, day 7, 5 mg/kg, in g (unit assumed)): 20.9 and 16.9 and 20.5 and 19.8 and 16.7 and 16.5 and 20.1 and 19.7
DAI score (Fig. 6b) ([1]; Compound 3 5 mg/kg, day 8, 5 mg/kg): 0 (3×) and 5 and 3 (2×) and 1 (2×)
Body weight (Fig. 6a) ([1]; Compound 3 5 mg/kg, day 8, 5 mg/kg, in g (unit assumed)): 20.9 and 15.8 and 22.3 and 21.2 and 16.4 and 21.3 and 21.8
DAI score (Fig. 6b) ([1]; Compound 3 5 mg/kg, day 9, 5 mg/kg): 1 and 0 (5×) and 2
Body weight (Fig. 6a) ([1]; Compound 3 5 mg/kg, day 9, 5 mg/kg, in g (unit assumed)): 20.2 and 15.8 and 22.7 and 22.9 and 16.5 and 21.9 and 22
DAI score (Fig. 6b) ([1]; Compound 3 5 mg/kg, day 10, 5 mg/kg): 1 (4×) and 2 (3×)
Body weight (Fig. 6a) ([1]; Compound 3 5 mg/kg, day 10, 5 mg/kg, in g (unit assumed)): 19.5 and 15.3 and 22.2 and 22.8 and 16.1 and 21.9 and 22.6
DAI score (Fig. 6b) ([1]; Compound 3 5 mg/kg, day 11): 0
Body weight (Fig. 6a) ([1]; Compound 3 5 mg/kg, day 11, 5 mg/kg): 20.1 and 15.7 and 22 (2×) and 22.9 and 16.7 and 22.8
DAI score (Fig. 6b) ([1]; Compound 3 5 mg/kg, day 12, 5 mg/kg): 0 (6×) and 1
Body weight (Fig. 6a) ([1]; Compound 3 5 mg/kg, day 12, 5 mg/kg, in g (unit assumed)): 21 and 16.6 and 22.3 and 23 and 17.2 and 22.1 and 22.9
Body weight (Fig. 6a) ([1]; Compound 3 5 mg/kg, day 13, 5 mg/kg, in g (unit assumed)): 21.7 and 17.7 and 21.8 and 23.1 and 18 and 22.3 and 22.6
Body weight (Fig. 6a) ([1]; Compound 3 5 mg/kg, day 14, 5 mg/kg): 21.5 and 17.4 and 22.3 and 23.4 and 19.2 and 22.4 (2×)
HE staining score (Fig. 6d) ([1]; Compound 3 5 mg/kg, individual colon tissues (n = 7), 5 mg/kg): 3 and 1 and 2
symptoms in DSS-induced murine colitis ([1]; compound 3 5 mg/kg, Fedratinib 10 mg/kg): ameliorate the symptoms
IC50 ([2]; JAK2, 25 μM ATP, mean ± SD, n = 3, read-out: Enzyme Inhibitory Activity (IC50)): 0.006 µM
IC50 ([2]; JAK2 enzyme, mean of 3 replicates, read-out: IC50/μM mean, enzyme inhibitory activity): 0.006 µM
IC50 ([2]; JAK2 enzyme, mean ± SD of 3 replicates, read-out: IC50/μM mean ± SD, enzyme inhibitory activity): 0.006 ± 0.001 µM
IC50 ([2]; JAK2 enzyme, single-replicate fits (replicates 1-3), read-out: IC50/μM (individual replicates), enzyme inhibitory activity): 0.00662 µM and 0.00532 µM and 0.00569 µM
concentration at time point (concentration-time data, Supplementary Fig. 8) ([3]; 0.5 h): 112.17 and 96.91 and 108.01
concentration at time point (concentration-time data, Supplementary Fig. 8) ([3]; 1 h): 33.98 and 41.85 and 29.29
concentration at time point (concentration-time data, Supplementary Fig. 8) ([3]; 2 h): 22.85 and 22.08 and 24.61
concentration at time point (concentration-time data, Supplementary Fig. 8) ([3]; 4 h): 23.46 and 31.4 and 25.29
concentration at time point (concentration-time data, Supplementary Fig. 8) ([3]; 8 h): 17.79 and 10.67 and 14.54
concentration at time point (concentration-time data, Supplementary Fig. 8) ([3]; 24 h): 2.18 and 0 (2×)
AUCinf ([3]; mice, iv (5 mg/kg)): 443.20 ng·h/mL
Cmax ([3]; mice, iv (5 mg/kg)): 351.23 ng/mL
